Experiments:
[1] = system: C57BL/6 mice exposed to 7.9 Gy total body 60Co irradiation; experiment: Serum growth factor and cytokine levels (MSD/ELISA) after 7.9 Gy total body irradiation; conditions: 7.9 Gy TBI
Gata1^low mice [2] = experiment: Flow cytometry of CD115-/CD41+ megakaryocytes in bone marrow of Gata1^low mice; conditions: 72 mg/kg/day captopril from 10 to 12 months, euthanized at 13 months, untreated Gata1^low 1.45%, wild type 0.5%, p<0.05
Gata1^low mice [3] = experiment: qRT-PCR of CD41, CD61, Col1a, Col3a2 mRNA in femur bone marrow of Gata1^low mice; conditions: 72 mg/kg/day captopril, vs untreated mice, p<0.05
Gata1^low mice [4] = experiment: Bone marrow histology and myelofibrosis (reticulin) scoring in Gata1^low mice; type: in vivo, mouse
Description: (§1) All animal handling procedures were performed in compliance with guidelines from the National Research Council for the ethical handling of laboratory animals and were approved by the Uniformed Services University of the Health Sciences Institutional Animal Care and Use Committee. Male and female Gata1^low and wild type CD1 mice were purchased from Jackson Laboratories (Bar Harbor, Me.). Quantitative PCR confirmed low expression of Gata1. The mice were crossed to a CD1 background to establish a line of homozygous mutant mice. Mice were kept in a barrier facility for animals accredited by the Association for Assessment and Accreditation of Laboratory Animal Care International. Mice were housed in groups of four. Animal rooms were maintained at 21±2° C., 50%±10% humidity, and 12-hour light/dark cycle with commercial, freely-available rodent ration (Harlan Teklad Rodent Diet 8604, Frederick, Md., USA).
(§2) HEMATOL. 2010; 38: 270-81. […] 2005; 29: 30-6. Based on previously measured volumes of water consumed per day by the mice, the daily water consumption was determined to be a dose of […] [Davis et al., 2010]. Control animals received acidified water (vehicle) without captopril. Animals were euthanized at 13 months of age.
(§3) Tissues were paraffin blocked and stained using standard methods for hematoxylin and eosin (H&E), Masson's trichrome, and Gomori's reticulin stain by Histoserve (Germantown, Md.). Stained slides were evaluated by a pathologist who was blinded to the identity of the treatment groups and using a published system for scoring myelofibrosis [Kvasnicka, H. M., Problems and pitfalls in grading of bone marrow fibrosis, collagen deposition and osteosclerosis—a consensus-based study, HISTOPATHOLOGY 2016; 68: 905-15]. Bone marrow sections were digitally scanned using the Zeiss Axioscan, and images were produced with Zen Lite software (Carl Zeiss, USA).
To determine the efficacy of captopril in reversing MF, morphologic and phenotypic changes in the Gata1^low mouse model were evaluated. […]

Gata1^low mice [5] = experiment: Flow cytometry of megakaryocytes in spleen of Gata1^low mice; conditions: captopril treatment, p<0.05
Gata1^low mice [6] = experiment: qRT-PCR of CD41, CD61, Col1a, Col3a2 mRNA in spleen-derived cells of Gata1^low mice; conditions: captopril treated Gata1^low mice
Gata1^low mice [7] = experiment: Peripheral complete blood counts with differentials in Gata1^low mice; type: in vivo, mouse; conditions: 72 mg/kg per day captopril in drinking water from 10 to 12 months, euthanized at 13.5 months
Text: HEMATOL. […] Control animals received acidified water (vehicle) without captopril.
Separate mice were used for each point (n=5-6 per group).
Peripheral blood counts were studied in captopril-treated and untreated Gata1^low mice and their wild-type littermates. […] Complete blood cell counts with differentials were obtained.

[8] = system: mice exposed to total body radiation; conditions: mice exposed to total body radiation (Davis et al. 2010); cited from earlier work
Gata1^low mice [9] = experiment: Spleen histology and spleen weight in Gata1^low mice; type: in vivo, mouse
Description: as §1, §2, §3
Levels of megakaryocytes and extramedullary hematopoiesis were compared in the spleens of wild-type, untreated Gata1^low, and captopril-treated Gata1^low mice. […]

## C[C@H](CS)C(=O)N1CCC[C@H]1C(=O)O [captopril]
[1]; 4 days post-irradiation, captopril 13 mg/kg/day in drinking water, same with or without captopril
  increase in serum EPO: ~10 fold
[1]; 7 days post-irradiation, captopril 13 mg/kg/day, radiation-plus-vehicle 8.66±0.9, mean±SEM
  serum EPO level: 0.57 ± 0.7 ng/mL
[1]; 14 days post-irradiation, captopril 13 mg/kg/day, radiation-plus-vehicle 288±140, mean±SEM
  serum EPO level: 140 ± 24 ng/mL
[1]; 21 days post-irradiation, captopril vs vehicle irradiated group
  serum EPO level: similarly elevated
[1]; any time points (3-30 days), captopril 13 mg/kg/day
  IL-6 levels post-irradiation: did not significantly suppress
[1]; by 30 days post-irradiation, captopril-treated animals
  serum EPO level: declined sharply
[1]; days 7 and 14 post-irradiation, captopril 13 mg/kg/day from 48 hours post-irradiation for 14 days, p<0.05 vs vehicle
  radiation induced G-CSF: significantly suppressed
[1]; days 7 and 14 post-irradiation, delayed (48 hours) low-dose captopril 13 mg/kg/day, p<0.05 vs vehicle
  radiation-induced SAA1 levels: significantly attenuated
Gata1^low mice [2]
  number of CD115-/CD41+ megakaryocytes in bone marrow: 0.6 % of total live cells
Gata1^low mice [3]
  decrease of CD41 marker (qRT-PCR), bone marrow: approximately 3 fold
  decrease of CD61 marker (qRT-PCR), bone marrow: ~2 fold
  decrease of Col1a expression, bone marrow: approximately 15 fold
  decrease of Col3a2 expression, bone marrow: approximately 4 fold
Gata1^low mice [4]; captopril for two months (10-12 months of age), evaluated at 13 months, untreated Gata1^low: moderate
  megakaryocytic hyperplasia in bone marrow (histology): only mild megakaryocytic hyperplasia
Gata1^low mice [4]; captopril for two months, score out of 3, untreated Gata1^low 1.8, wild type 0
  averaged bone marrow reticulin score: 0.5
Gata1^low mice [4]; captopril in drinking water (79 mg/kg/day) from 10-12 months of age, evaluated at 13 months, vs untreated Gata1^low
  severity of bone marrow fibrosis (histology): reduced the severity off bone marrow fibrosis
Gata1^low mice [5]
  decrease in the frequency of megakaryocytes as a percentage of total live cells, spleen: ~2 fold
Gata1^low mice [6]
  Col3a2 expression (qPCR), spleen: trend toward reduced Col3a2 expression, although this did not reach significance
Gata1^low mice [6]; p<0.05
  decrease of CD41 marker (qRT-PCR), spleen: about 6 fold
  decrease of CD61 marker (qRT-PCR), spleen: about 5 fold
  reduction in the level of Col1a expression (qPCR), spleen: ~4 fold
Gata1^low mice [7]
  platelet count: did not ameliorate
Gata1^low mice [7]; vs untreated Gata1^low
  eosinophils: normalized
  lymphocytes: normalized
  neutrophils: normalized
  white blood cells (WBC): normalized
[8]
  blood cell recovery (red blood cells, reticulocytes, platelets) and recovery of colony forming units (CFU-GM, CFU-M, total): improving blood cell recovery
  survival rates: improved survival rates
Gata1^low mice [9]; captopril for 2 months, vs untreated Gata1^low mice, p<0.05
  decrease in splenic weight: ~2 fold
Gata1^low mice [9]; captopril for two months, untreated Gata1^low: significant
  extramedullary hematopoiesis in spleen (histology): moderate amounts of extramedullary hematopoiesis
Gata1^low mice [9]; captopril for two months, vs untreated Gata1^low
  atypical megakaryocytes in spleen (histology): reduced numbers of atypical megakaryocytes
